Laboratory results: ChEMBL document CHEMBL3817757, “Unprecedented Binding Mode of Hydroxamate-Based Inhibitors of Glutamate Carboxypeptidase II: Structural Characterization and Biological Activity” (J Med Chem, 2016)
Active and inactive are the calls of the source. The calls are words filed in the database; no cut-off is given here.

What was measured:
[1] = target: Glutamate carboxypeptidase 2 (Homo sapiens, UniProt Q04609); test: Inhibition of human recombinant GCP2 expressed in Schneider 2 cells preincubated for 15 mins using [3H]-NAAG/NAAG as substrate measured after 20 mins by liquid scintillation counting
Glutamate carboxypeptidase 2, sequence (Q04609 whole entry): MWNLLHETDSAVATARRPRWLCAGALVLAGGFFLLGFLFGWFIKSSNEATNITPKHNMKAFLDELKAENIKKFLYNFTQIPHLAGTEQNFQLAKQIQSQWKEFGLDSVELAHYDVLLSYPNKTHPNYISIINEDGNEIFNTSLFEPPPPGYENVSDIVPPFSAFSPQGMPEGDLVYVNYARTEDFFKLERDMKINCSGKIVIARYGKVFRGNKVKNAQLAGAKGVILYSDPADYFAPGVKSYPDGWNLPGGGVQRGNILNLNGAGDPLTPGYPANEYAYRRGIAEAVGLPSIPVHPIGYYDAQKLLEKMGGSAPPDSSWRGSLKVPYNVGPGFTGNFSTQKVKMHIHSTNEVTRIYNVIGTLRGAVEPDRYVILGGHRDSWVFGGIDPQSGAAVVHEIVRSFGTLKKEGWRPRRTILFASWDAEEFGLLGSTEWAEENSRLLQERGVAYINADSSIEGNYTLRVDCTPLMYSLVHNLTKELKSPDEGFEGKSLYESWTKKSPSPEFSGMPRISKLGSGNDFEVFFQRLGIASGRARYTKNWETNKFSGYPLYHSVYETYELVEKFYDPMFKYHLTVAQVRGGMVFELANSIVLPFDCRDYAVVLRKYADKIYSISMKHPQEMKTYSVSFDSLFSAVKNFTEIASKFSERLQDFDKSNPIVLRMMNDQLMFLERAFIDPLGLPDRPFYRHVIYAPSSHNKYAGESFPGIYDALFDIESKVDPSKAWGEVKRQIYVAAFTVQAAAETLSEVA

Plasma = test: Plasma concentration in CD1 mouse at 10 mg/kg, po administered as single dose measured after 0.25 to 2 hrs by LC/MS/MS analysis; type: ADME, organism-based; settings: in vivo
[2] = Tmax in CD1 mouse plasma at 10 mg/kg, po by LC/MS/MS analysis; type: ADME, organism-based
[3] = Ratio of CD1 mouse sciatic nerve AUC (0 to 2 hrs) to CD1 mouse plasma AUC (0 to 2 hrs); type: ADME, cell-free; settings: in vivo
Rattus norvegicus [4] = test: Analgesic activity in Sprague-Dawley rat chronic constrictive injury model of neuropathic pain assessed as increase in paw withdrawal latencies in response to thermal stimulus at 10 mg/kg/day, po administered via oral gavage for 15 days measured from day 4 of compound dosing; type: functional, organism-based
[5] = Drug uptake in CD1 mouse sciatic nerve at 10 mg/kg, po administered as single dose measured after 0.25 to 2 hrs by LC/MS/MS analysis; type: ADME, organism-based; settings: in vivo
Rattus norvegicus [6] = test: Effect on absolute paw withdrawal latency to thermal stimulus in sham operated Sprague-Dawley rat at 10 mg/kg/day, po administered via oral gavage for 15 days measured over compound dosing; type: ADME, organism-based; settings: in vivo, 360 h

Molecule `O=C(CCC(Cc1ccc(C(=O)O)cc1)C(=O)O)NO` (racemic) has an IC50 [1] of 63 nM.
With `O=C(CC[C@H](Cc1ccc(C(=O)O)cc1)C(=O)O)NO` the IC50 [1] was 44 nM.
With `O=C(CC[C@@H](Cc1ccc(C(=O)O)cc1)C(=O)O)NO` the concentration (Plasma) was 121 nM, the Tmax [2] was 15 min and the “Ratio AUC” value [3] was 43%. The Activity (Rattus norvegicus [4]) was “Active”, the Drug uptake [5] was “Active” and the IC50 [1] was 97 nM. For the same molecule, the Activity (Rattus norvegicus [6]) was “Non-toxic”.
